# Data taken from patent US20210009542A1 (Calico Life Sciences LLC, priority 2018, published 2021).
# pIC50: −log10 of the molar value. Read-outs that look alike come from different tables or passages of the source.
# Assays:
# [1] = target: T1, His tagged PTPN2 (TC45) protein (Homo sapiens, UniProt P17706); experiment: Mobility shift assay (MSA) for potency of PTPN2 inhibitors; assay type: biochemical; settings: read-out: PTPN2 MSA IC50
# T1 construct: made in house
# T1 sequence (P17706 with tags, fused parts or gaps isoform P17706-2): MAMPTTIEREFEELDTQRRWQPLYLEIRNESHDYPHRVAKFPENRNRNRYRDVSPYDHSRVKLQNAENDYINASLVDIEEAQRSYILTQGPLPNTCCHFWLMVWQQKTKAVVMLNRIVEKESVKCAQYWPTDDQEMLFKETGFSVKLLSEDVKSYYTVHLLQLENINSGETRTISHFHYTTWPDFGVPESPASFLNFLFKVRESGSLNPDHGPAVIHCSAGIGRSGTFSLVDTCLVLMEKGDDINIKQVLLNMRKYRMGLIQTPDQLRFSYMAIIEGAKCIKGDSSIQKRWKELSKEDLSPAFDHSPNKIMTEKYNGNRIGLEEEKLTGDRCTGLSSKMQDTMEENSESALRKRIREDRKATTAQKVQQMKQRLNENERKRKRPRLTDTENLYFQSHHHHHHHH
# Protocol: Compound activity was determined using in house His tagged PTPN2 (TC45) protein (SEQ ID NO: 1) in an in vitro enzymatic reaction. The enzymatic assay used to determine activity was a mobility shift assay using a LabChip EZ Reader by Caliper Life Sciences. The enzymatic reaction was carried out in assay buffer (50 mM HEPES pH 7.5, 1 mM EGTA, 10 mM EDTA, 0.01% Tween® 20, and 2 mM DTT). The compounds were dispensed on a white 384 well ProxiPlate™ (PerkinElmer Catalog #6008289) plate using the Labcyte Echo at varying concentrations (12 point, 1:3 dilution). The enzyme (at 0.5 nM) was incubated with compound for 10 minutes at room temperature. Then the substrate (phosphorylated insulin receptor probe sequence: ((OG488)-(NH—CH2—CH2—O—CH2—CH2—O—CH2—CO)-T-R-D-I-(PY)-E-T-D-Y-Y-R-K-K-NH2) (SEQ ID NO: 2) was added at […] to the plates and incubated for another 10 minutes at room temperature. Finally, a quench solution (water and 4-bromo-3-(2-oxo-2-propoxyethoxy)-5-(3-{[1-(phenylmethanesulfonyl)piperidin-4-yl]amino}phenyl)thiophene-2-carboxylic acid) was added to the plates, which were then run on the EZ Reader (excitation 488 nm, emission 530 nm) to measure % conversion (the amount of phosphorylated substrate which was de-phosphorylated by PTPN2). […] The % inhibition was then used to calculate the IC50 values.
# [2] = test system: B16F10 mouse melanoma cells; experiment: B16F10 IFNγ-induced cellular growth inhibition assay; assay type: cell-based; settings: Mus musculus, B16-F10, 33 μM compound
# Protocol: B16F10 mouse melanoma cells (ATCC Cat ^#CRL-6475, Manassas, Va.) were seeded at a density of 500 cells per well in a 384-well clear bottom plate (Corning Cat^# 3765, Corning, N.Y.) in 25 μL total volume of DMEM+10% FBS (Sigma Cat ^#D6429 and Sigma Cat ^#F4135, St. Louis, Mo.). Cells were allowed to adhere overnight at 37° C.+5% CO2. On the following day, 12.5 μL of mouse IFNγ (RD systems Cat485-MI/CF, Minneapolis, Minn.) was added to half of the plate (columns 13-24) at a concentration of 2 ng/mL for a final assay concentration of 0.5 ng/mL of IFNγ. Media only (12.5 μL of DMEM+10% FBS) was added to the remainder of the plate (columns 1-12). Next, compounds resuspended in DMSO (Sigma Cat ^#D2650) at 100 mM were diluted in semi-log dilutions in DMSO ranging from 100 mM to 0.001 mM and DMSO only controls were included. The compound/DMSO dilutions were further diluted 1:250 in DMEM+10% FBS, and 12.5 μL of these dilutions were added in triplicates to cells of both treatment arms (with and without IFNγ). Final compound concentrations ranged from 100 μM to 0.001 μM with a final DMSO concentration of 0.1%. Compounds were only dosed in the inner 240 wells, avoiding the outer 2-well perimeter of the plate to minimize edge effects. Finally, the plate was loaded into an IncuCyte® S3 Live Cell Analysis System (Essen Bioscience-Sartorius, Ann Arbor, Mich.) maintained in a 37° C.+5% CO2 incubator, allowed to equilibrate for 2 hours, and imaged every 6 hours for 5 days. Confluence over time for compound dilutions in the presence and absence of IFNγ was measured. Growth inhibition values were obtained when the “DMSO/no IFNγ” control reached confluence >95%. At these time points, the percent growth inhibition of each compound at the indicated concentration was calculated relative to the “DMSO/with IFNγ” control.
# [3] = +0.5 ng/mL IFNγ, relative to DMSO control, read-out: % B16F10 growth inhibition (+0.5 ng/mL IFNγ) @ 33 μM
# [4] = no IFNγ, read-out: % B16F10 growth inhibition (no IFNγ) @ 33 μM
SMILES,pIC50 [1],"inhibition at 33 µM [2, 3] [%]","inhibition at 33 µM [2, 4] [%]"
"O=C1CN(c2c(O)cc3ccc(OCCN4CCOCC4)cc3c2F)S(=O)(=O)N1 [Compound 100, 5-{1-fluoro-3-hydroxy-7-[2-(morpholin-4-yl)ethoxy]naphthalen-2-yl}-1λ^6,2,5-thiadiazolidine-1,1,3-trione]",8.00 to 9.00,> 90,< 25
"CC(C)NC(=O)Oc1ccc2cc(O)c(N3CC(=O)NS3(=O)=O)c(F)c2c1 [Compound 103, 8-fluoro-6-hydroxy-7-(1,1,4-trioxo-1λ^6,2,5-thiadiazolidin-2-yl)naphthalen-2-yl propan-2-ylcarbamate]",8.00 to 9.00,60 to 90,< 25
"O=C1CN(c2c(O)cc3ccc4occc4c3c2F)S(=O)(=O)N1 [Compound 104, 5-(9-fluoro-7-hydroxynaphtho[2,1-b]furan-8-yl)-1λ^6,2,5-thiadiazolidine-1,1,3-trione]",8.00 to 9.00,25 to 59,< 25
"O=C1CN(c2c(O)cc3ccc(OCCN4CCC4)cc3c2F)S(=O)(=O)N1 [Compound 105, 5-{7-[2-(azetidin-1-yl)ethoxy]-1-fluoro-3-hydroxynaphthalen-2-yl}-1λ^6,2,5-thiadiazolidine-1,1,3-trione]",8.00 to 9.00,60 to 90,< 25
"[2H]c1c(O)c(N2C([2H])([2H])C(=O)NS2(=O)=O)c(F)c2cc(OC)ccc12 [Compound 106, 5-[1-fluoro-3-hydroxy-7-methoxy(4-^2H)naphthalen-2-yl](4,4-^2H2)-1λ^6,2,5-thiadiazolidine-1,1,3-trione]",8.00 to 9.00,60 to 90,< 25
"CNc1ccc2cc(O)c(N3CC(=O)NS3(=O)=O)c(F)c2c1 [Compound 107, 5-[1-fluoro-3-hydroxy-7-(methylamino)naphthalen-2-yl]-1λ^6,2,5-thiadiazolidine-1,1,3-trione]",7.00 to 8.00,60 to 90,< 25
"N#CCCCCOc1ccc2cc(O)c(N3CC(=O)NS3(=O)=O)c(F)c2c1 [Compound 111, 5-{[8-fluoro-6-hydroxy-7-(1,1,4-trioxo-1λ^6,2,5-thiadiazolidin-2-yl)naphthalen-2-yl]oxy}pentanenitrile]",> 9.00,60 to 90,< 25
"O=C1CN(c2c(O)cc3ccc(OCCN4CCCCC4)cc3c2F)S(=O)(=O)N1 [Compound 112, 5-{1-fluoro-3-hydroxy-7-[2-(piperidin-1-yl)ethoxy]naphthalen-2-yl}-1λ^6,2,5-thiadiazolidine-1,1,3-trione]",7.00 to 8.00,25 to 59,< 25
"O=C1CN(c2c(O)cc3ccc(OCC4CCNCC4)cc3c2F)S(=O)(=O)N1 [Compound 114, 5-{1-fluoro-3-hydroxy-7-[(piperidin-4-yl)methoxy]naphthalen-2-yl}-1λ^6,2,5-thiadiazolidine-1,1,3-trione]",8.00 to 9.00,60 to 90,< 25
"CC(C)(CC#N)CCOc1ccc2cc(O)c(N3CC(=O)NS3(=O)=O)c(F)c2c1 [Compound 115, 5-{[8-fluoro-6-hydroxy-7-(1,1,4-trioxo-1λ^6,2,5-thiadiazolidin-2-yl)naphthalen-2-yl]oxy}-3,3-dimethylpentanenitrile]",> 9.00,60 to 90,< 25
"CC(C)(C)CCNc1ccc2cc(O)c(N3CC(=O)NS3(=O)=O)c(F)c2c1 [Compound 116, 5-{7-[(3,3-dimethylbutyl)amino]-1-fluoro-3-hydroxynaphthalen-2-yl}-1λ^6,2,5-thiadiazolidine-1,1,3-trione]",8.00 to 9.00,> 90,< 25
"COc1ccc2c(F)c(O)c(N3CC(=O)NS3(=O)=O)c(F)c2c1 [Compound 117, 5-(1,4-difluoro-3-hydroxy-7-methoxynaphthalen-2-yl)-1λ^6,2,5-thiadiazolidine-1,1,3-trione]",8.00 to 9.00,25 to 59,< 25
"O=C1CN(c2c(O)cc3ccc(C4=CCN(S(=O)(=O)c5ccoc5)C4)cc3c2F)S(=O)(=O)N1 [Compound 312, 5-{1-fluoro-7-[1-(furan-3-sulfonyl)-2,5-dihydro-1H-pyrrol-3-yl]-3-hydroxynaphthalen-2-yl}-1λ^6,2,5-thiadiazolidine-1,1,3-trione]",> 9.00,–,–
"O=C1CN(c2c(O)cc3ccc(C4=CCN(S(=O)(=O)c5ccsc5)C4)cc3c2F)S(=O)(=O)N1 [Compound 314, 5-{1-fluoro-3-hydroxy-7-[1-(thiophene-3-sulfonyl)-2,5-dihydro-1H-pyrrol-3-yl]naphthalen-2-yl}-1λ^6,2,5-thiadiazolidine-1,1,3-trione]",> 9.00,–,–
"O=C1CN(c2c(O)cc3ccc(C4=CCN(S(=O)(=O)c5ccccc5)C4)cc3c2F)S(=O)(=O)N1 [Compound 315, 5-{7-[1-(benzenesulfonyl)-2,5-dihydro-1H-pyrrol-3-yl]-1-fluoro-3-hydroxynaphthalen-2-yl}-1λ^6,2,5-thiadiazolidine-1,1,3-trione]",> 9.00,–,–
"O=C1CN(c2c(O)cc3ccc(C4=CCN(S(=O)(=O)C5CCC5)C4)cc3c2F)S(=O)(=O)N1 [Compound 316, 5-{7-[1-(cyclobutanesulfonyl)-2,5-dihydro-1H-pyrrol-3-yl]-1-fluoro-3-hydroxynaphthalen-2-yl}-1λ^6,2,5-thiadiazolidine-1,1,3-trione]",> 9.00,–,–
"COC(=O)[C@@H](N)CCOc1ccc2cc(O)c(N3CC(=O)NS3(=O)=O)c(F)c2c1 [Compound 317, methyl (2S)-2-amino-4-{[8-fluoro-6-hydroxy-7-(1,1,4-trioxo-1λ^6,2,5-thiadiazolidin-2-yl)naphthalen-2-yl]oxy}butanoate]",8.00 to 9.00,–,–
"Cc1n[nH]c(C)c1COc1ccc2cc(O)c(N3CC(=O)NS3(=O)=O)c(F)c2c1 [Compound 318, 5-{7-[(3,5-dimethyl-1H-pyrazol-4-yl)methoxy]-1-fluoro-3-hydroxynaphthalen-2-yl}-1λ^6,2,5-thiadiazolidine-1,1,3-trione]",8.00 to 9.00,–,–
"Cc1n[nH]c(C)c1-c1ccc2cc(O)c(N3CC(=O)NS3(=O)=O)c(F)c2c1 [Compound 319, 5-[7-(3,5-dimethyl-1H-pyrazol-4-yl)-1-fluoro-3-hydroxynaphthalen-2-yl]-1λ^6,2,5-thiadiazolidine-1,1,3-trione]",8.00 to 9.00,–,–
"O=C1CN(c2c(O)cc3ccc(OCCC4CCCCC4)cc3c2F)S(=O)(=O)N1 [Compound 320, 5-[7-(2-cyclohexylethoxy)-1-fluoro-3-hydroxynaphthalen-2-yl]-1λ^6,2,5-thiadiazolidine-1,1,3-trione]",> 9.00,–,–
"N#Cc1c[nH]c(-c2ccc3cc(O)c(N4CC(=O)NS4(=O)=O)c(F)c3c2)n1 [Compound 321, 2-[8-fluoro-6-hydroxy-7-(1,1,4-trioxo-1λ^6,2,5-thiadiazolidin-2-yl)naphthalen-2-yl]-1H-imidazole-4-carbonitrile]",8.00 to 9.00,–,–
